According to ChEMBL document CHEMBL3882389, “Phosphatidylinositol 3-Kinase Inhibitors for the Treatment of Lymphoproliferative Malignancies” (2014):
The source made the active and inactive calls. The rule behind the calls is not given here.

Experiments:
[1] = Toxicity in patient with chronic lymphocytic leukemia and lymphoma assessed as incidence of cough at 600 mg, po qd for 21 days co-administered with paclitaxel and carboplatin during phase 1 open label non-randomized trial relative to control; type: organism-based; settings: human, in vivo, 504 h
Homo sapiens [2] = experiment: In vivo inhibition of PI3K in hair follicle of po dosed solid tumor patient administered once daily; type: functional, organism-based
[3] = Toxicity in po dosed patient with chronic lymphocytic leukemia and lymphoma assessed as induction of grade 3 rash at 600 mg, po administered once daily for continuous 21 days; type: organism-based; settings: human, in vivo, 504 h
[4] = Toxicity in po dosed patient with chronic lymphocytic leukemia and lymphoma assessed as induction of grade 3 hypersensitivity at 600 mg, po once daily for continuous 21 daysrest; type: organism-based; settings: human, in vivo
[5] = Toxicity in patient with chronic lymphocytic leukemia and lymphoma assessed as incidence of dyspnea at 600 mg, po qd for 21 days co-administered with paclitaxel and carboplatin during phase 1 open label non-randomized trial relative to control; type: organism-based; settings: human, in vivo, 504 h
[6] = Toxicity in patient with chronic lymphocytic leukemia and lymphoma assessed as incidence of grade more than equal 3 abdominal pain at 600 mg, po qd for 21 days co-administered with paclitaxel and carboplatin during phase 1 open label non-randomized trial relative to control; type: organism-based, Abdomen; settings: human, in vivo, 504 h
[7] = Toxicity in patient with chronic lymphocytic leukemia and lymphoma assessed as incidence of diarrhea at 600 mg, po qd for 21 days during phase 1 open label non-randomized trial relative to control; type: organism-based; settings: human, in vivo, 504 h
[8] = Toxicity in patient with chronic lymphocytic leukemia and lymphoma assessed as incidence of cough at 600 mg, po qd for 21 days during phase 1 open label non-randomized trial relative to control; type: organism-based; settings: human, in vivo, 504 h
[9] = Toxicity in patient with chronic lymphocytic leukemia and lymphoma assessed as incidence of grade more than equal 3 pyrexia at 600 mg, po qd for 21 days co-administered with paclitaxel and carboplatin during phase 1 open label non-randomized trial relative to control; type: organism-based; settings: human, in vivo, 504 h
[10] = Toxicity in patient with chronic lymphocytic leukemia and lymphoma assessed as incidence of pruritus at 600 mg, po qd for 21 days during phase 1 open label non-randomized trial relative to control; type: organism-based; settings: human, in vivo, 504 h
[11] = Toxicity in patient with chronic lymphocytic leukemia and lymphoma assessed as incidence of fatigue at 600 mg, po qd for 21 days co-administered with paclitaxel and carboplatin during phase 1 open label non-randomized trial relative to control; type: organism-based; settings: human, in vivo, 504 h
[12] = Toxicity in patient with chronic lymphocytic leukemia and lymphoma assessed as incidence of hyperglycemia at 600 mg, po qd for 21 days co-administered with paclitaxel and carboplatin during phase 1 open label non-randomized trial relative to control; type: organism-based; settings: human, in vivo, 504 h
[13] = Toxicity in patient with chronic lymphocytic leukemia and lymphoma assessed as incidence of grade more than equal 3 cough at 600 mg, po qd for 21 days co-administered with paclitaxel and carboplatin during phase 1 open label non-randomized trial relative to control; type: organism-based; settings: human, in vivo, 504 h
[14] = Toxicity in patient with chronic lymphocytic leukemia and lymphoma assessed as incidence of dyspnea at 600 mg, po qd for 21 days during phase 1 open label non-randomized trial relative to control; type: organism-based; settings: human, in vivo, 504 h
[15] = Toxicity in patient with chronic lymphocytic leukemia and lymphoma assessed as incidence of grade more than equal 3 fatigue at 600 mg, po qd for 21 days co-administered with paclitaxel and carboplatin during phase 1 open label non-randomized trial relative to control; type: organism-based; settings: human, in vivo, 504 h
[16] = Toxicity in po dosed patient with chronic lymphocytic leukemia and lymphoma assessed as induction of grade 3 hypersensitivity at 600 mg, po administered once daily for 21 days followed by 7 days rest; type: organism-based; settings: human, in vivo
[17] = Toxicity in patient with chronic lymphocytic leukemia and lymphoma assessed as incidence of diarrhea at 600 mg, po qd for 21 days co-administered with paclitaxel and carboplatin during phase 1 open label non-randomized trial relative to control; type: organism-based; settings: human, in vivo, 504 h
[18] = Toxicity in patient with chronic lymphocytic leukemia and lymphoma assessed as incidence of rash at 600 mg, po qd for 21 days co-administered with paclitaxel and carboplatin during phase 1 open label non-randomized trial relative to control; type: organism-based; settings: human, in vivo, 504 h
[19] = Toxicity in patient with chronic lymphocytic leukemia and lymphoma assessed as incidence of grade more than equal 3 fatigue at 600 mg, po qd for 21 days during phase 1 open label non-randomized trial relative to control; type: organism-based; settings: human, in vivo, 504 h
[20] = Toxicity in patient with chronic lymphocytic leukemia and lymphoma assessed as incidence of grade more than equal 3 anemia at 600 mg, po qd for 21 days during phase 1 open label non-randomized trial relative to control; type: organism-based; settings: human, in vivo, 504 h
[21] = Toxicity in patient with chronic lymphocytic leukemia and lymphoma assessed as incidence of abdominal pain at 600 mg, po qd for 21 days during phase 1 open label non-randomized trial relative to control; type: organism-based, Abdomen; settings: human, in vivo, 504 h
[22] = Toxicity in patient with chronic lymphocytic leukemia and lymphoma assessed as incidence of grade more than equal 3 neutrophenia at 600 mg, po qd for 21 days co-administered with paclitaxel and carboplatin during phase 1 open label non-randomized trial relative to control; type: organism-based; settings: human, in vivo, 504 h
Homo sapiens [23] = experiment: In vivo inhibition of PI3K in skin of po dosed solid tumor patient administered once daily; type: functional, organism-based
[24] = Toxicity in patient with chronic lymphocytic leukemia and lymphoma assessed as incidence of grade more than equal 3 anemia at 600 mg, po qd for 21 days co-administered with paclitaxel and carboplatin during phase 1 open label non-randomized trial relative to control; type: organism-based; settings: human, in vivo, 504 h
[25] = Toxicity in po dosed patient with chronic lymphocytic leukemia and lymphoma assessed as induction of grade 3 rash at 600 mg, po administered once daily for 21 days followed by 7 days rest; type: organism-based; settings: human, in vivo
Homo sapiens [26] = experiment: In vivo inhibition of PI3K in PBMC of po dosed solid tumor patient administered once daily; type: functional, organism-based
[27] = Toxicity in patient with chronic lymphocytic leukemia and lymphoma assessed as incidence of hyperglycemia at 600 mg, po qd for 21 days during phase 1 open label non-randomized trial relative to control; type: organism-based; settings: human, in vivo, 504 h
[28] = Toxicity in patient with chronic lymphocytic leukemia and lymphoma assessed as incidence of neutrophenia at 600 mg, po qd for 21 days co-administered with paclitaxel and carboplatin during phase 1 open label non-randomized trial relative to control; type: organism-based; settings: human, in vivo, 504 h
[29] = Toxicity in patient with chronic lymphocytic leukemia and lymphoma assessed as incidence of grade more than equal 3 pruritus at 600 mg, po qd for 21 days co-administered with paclitaxel and carboplatin during phase 1 open label non-randomized trial relative to control; type: organism-based; settings: human, in vivo, 504 h
[30] = Toxicity in patient with chronic lymphocytic leukemia and lymphoma assessed as incidence of anemia at 600 mg, po qd for 21 days during phase 1 open label non-randomized trial relative to control; type: organism-based; settings: human, in vivo, 504 h
[31] = Toxicity in patient with chronic lymphocytic leukemia and lymphoma assessed as incidence of grade more than equal 3 dyspnea at 600 mg, po qd for 21 days co-administered with paclitaxel and carboplatin during phase 1 open label non-randomized trial relative to control; type: organism-based; settings: human, in vivo, 504 h
Homo sapiens [32] = experiment: In vivo inhibition of PI3K in tumor tissue of po dosed solid tumor patient administered once daily; type: functional, organism-based
[33] = Toxicity in patient with chronic lymphocytic leukemia and lymphoma assessed as incidence of rash at 600 mg, po qd for 21 days during phase 1 open label non-randomized trial relative to control; type: organism-based; settings: human, in vivo, 504 h

COc1ccc(Cl)c(Nc2nc3ccccc3nc2NS(=O)(=O)c2cccc(NC(=O)C(C)(C)N)c2)c1 [PILARALISIB]
Activity [1]: 0%
inhibition (Homo sapiens [2]): Active
Activity [3]: Toxic
Activity [4]: Toxic
Activity [5]: 0%
Activity [6]: 0%
Activity [7]: 12%
Activity [8]: 6%
Activity [9]: 0%
Activity [10]: 4%
Activity [11]: 0%
Activity [12]: 4%
Activity [13]: 0%
Activity [14]: 4%
Activity [15]: 0%
Activity [16]: Toxic
Activity [17]: 7%
Activity [18]: 3%
Activity [19]: 0%
Activity [20]: 3%
Activity [21]: 4%
Activity [22]: 4%
inhibition (Homo sapiens [23]): Active
Activity [24]: 0%
Activity [25]: Toxic
inhibition (Homo sapiens [26]): Active
Activity [27]: 4%
Activity [28]: 4%
Activity [29]: 0%
Activity [30]: 4%
Activity [31]: 0%
inhibition (Homo sapiens [32]): Active
Activity [33]: 4%
